Reference: patent US9914735B2, “Heteroaryl Syk inhibitors” (Boehringer Ingelheim International GmbH, priority 2014, dated 2018)
Like-named read-outs stand apart in the source and are kept apart here.

Tests used:
[1] = biological target: Recombinant human Syk (amino acids 342-635), GST-Syk kinase fusion protein (Homo sapiens (Human), UniProt P43405); test: Syk kinase test (Kinase Glo luminescence); assay type: biochemical
[2] = biological target: Recombinant human Aurora B (amino acids 1-344) (Homo sapiens (Human), UniProt Q96GD4); test: Aurora B kinase test (ADP Glo luminescence); assay type: biochemical
Recombinant human Aurora B (amino acids 1-344), sequence (Q96GD4 whole entry, the tested form may be a part): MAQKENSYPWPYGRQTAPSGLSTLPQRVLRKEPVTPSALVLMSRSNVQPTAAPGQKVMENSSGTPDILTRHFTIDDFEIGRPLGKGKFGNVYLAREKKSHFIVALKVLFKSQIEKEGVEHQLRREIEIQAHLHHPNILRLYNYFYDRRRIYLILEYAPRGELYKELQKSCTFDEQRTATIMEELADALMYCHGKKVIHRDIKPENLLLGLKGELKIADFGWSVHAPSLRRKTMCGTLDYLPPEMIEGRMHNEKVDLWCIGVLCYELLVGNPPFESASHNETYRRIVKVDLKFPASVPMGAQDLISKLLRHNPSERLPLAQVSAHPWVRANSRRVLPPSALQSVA

[3] = biological target: FLT3 (Homo sapiens (Human), UniProt P36888); test: FLT3 kinase test (Z'-LYTE); assay type: biochemical
FLT3, sequence (P36888 27-993): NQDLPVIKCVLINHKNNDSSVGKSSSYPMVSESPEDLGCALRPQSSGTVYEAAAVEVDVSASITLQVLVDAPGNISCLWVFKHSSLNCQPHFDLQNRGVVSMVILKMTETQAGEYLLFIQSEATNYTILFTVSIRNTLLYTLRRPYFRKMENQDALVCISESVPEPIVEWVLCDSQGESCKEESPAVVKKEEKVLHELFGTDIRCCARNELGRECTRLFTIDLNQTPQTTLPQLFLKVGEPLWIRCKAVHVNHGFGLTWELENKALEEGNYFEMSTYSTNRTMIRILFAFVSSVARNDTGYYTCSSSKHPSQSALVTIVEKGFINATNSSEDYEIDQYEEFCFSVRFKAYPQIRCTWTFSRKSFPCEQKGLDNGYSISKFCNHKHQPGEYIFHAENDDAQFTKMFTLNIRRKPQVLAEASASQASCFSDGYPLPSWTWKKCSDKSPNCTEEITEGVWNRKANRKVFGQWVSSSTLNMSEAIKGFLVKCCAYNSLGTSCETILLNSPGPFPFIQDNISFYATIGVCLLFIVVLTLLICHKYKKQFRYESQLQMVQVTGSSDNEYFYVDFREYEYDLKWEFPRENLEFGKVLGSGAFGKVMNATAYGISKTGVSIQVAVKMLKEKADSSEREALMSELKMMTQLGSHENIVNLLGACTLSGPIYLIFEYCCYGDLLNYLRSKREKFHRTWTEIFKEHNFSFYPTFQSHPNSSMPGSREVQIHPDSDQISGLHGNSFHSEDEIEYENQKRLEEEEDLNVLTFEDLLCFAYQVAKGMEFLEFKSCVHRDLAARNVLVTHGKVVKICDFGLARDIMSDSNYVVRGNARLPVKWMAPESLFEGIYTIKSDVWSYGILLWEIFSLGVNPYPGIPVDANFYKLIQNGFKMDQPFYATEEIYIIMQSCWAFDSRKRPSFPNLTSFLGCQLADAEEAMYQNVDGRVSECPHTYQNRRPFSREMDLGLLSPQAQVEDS
In short: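 Z'-LYTE FRET format; kinase reaction started with ATP, run 1 h at room temperature, then 1 h development before stop reagent. Controls without compound, without kinase, and phosphopeptide as 100% phosphorylation reference; values reported in M.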

[4] = Human liver microsomal stability test; assay type: in vitro ADME; conditions: human liver microsomes
Protocol: The metabolic degradation for a specific SYK-inhibitor is performed at 37° C. with pooled human liver microsomes (human liver microsomes are commercially available as “BD UltraPool™” by Corning Life Sciences, Fogostraat 12, 1060 LJ Amsterdam, The Netherlands). The final incubation volume of 100 μl per time point contains TRIS buffer pH 7.6 at RT (0.1 M), magnesium chloride (5 mM), microsomal protein (1 mg/ml) and the test compound at a final concentration of 1 μM.
Following a short preincubation period at 37° C., the reaction is initiated by addition of beta-nicotinamide adenine dinucleotide phosphate in its reduced form (NADPH, 1 mM) and terminated by transfering an aliquot into solvent after different time points. Additionally, the NADPH-independent degradation is monitored in incubations without NADPH, terminated at the last time point.
The quenched (terminated) incubations are then pelleted by centrifugation (10000 g, 5 min).
An aliquot of the supernatant is assayed by LC-MS/MS for the remaining amount of parent compound. The half-life (t1/2 INVITRO) is determined by the slope of the semilogarithmic plot of the concentration-time profile.
The intrinsic clearance (CL_[…]) is calculated by considering the amount of protein in the incubation: CL_[…][μl/min/mg protein]=(Ln 2/(t1/2 INVITRO[min]*protein content[mg/ml]))*1000
The protein content [mg/ml] was determined with the “Bicinchoninic Acid Kit” of Sigma Aldrich (commercially available).
The upscaled intrinsic Clearance (CL_UP_INT) is calculated by considering the liver weight [g liver/kg body weight] and the microsomal recovery [mg protein/g liver]: CL_UP_INT[ml/min/kg]=0.001*CL_[…]*liver weight*microsomal recovery • with microsomal recovery=45 mg protein/g liver • with liver weight=25.7 g liver/kg body weight
The percent hepatic blood flow (% Qh) is finally calculated by considering the human liver blood flow Q [ml/min/kg]: % Qh[%]=((Q*CL_UP_INT)/(Q+CL_UP_INT)/Q)*100 • with liver blood flow (Q)=20.7 ml/min/kg.

[5] = biological target: Human GSK3beta (Homo sapiens (Human), UniProt P49841); test: GSK 3beta kinase test (Z'-LYTE); assay type: biochemical; conditions: read-out: IC50 in μM (GSK3beta-Inhibition)
Human GSK3beta, sequence (P49841 whole entry): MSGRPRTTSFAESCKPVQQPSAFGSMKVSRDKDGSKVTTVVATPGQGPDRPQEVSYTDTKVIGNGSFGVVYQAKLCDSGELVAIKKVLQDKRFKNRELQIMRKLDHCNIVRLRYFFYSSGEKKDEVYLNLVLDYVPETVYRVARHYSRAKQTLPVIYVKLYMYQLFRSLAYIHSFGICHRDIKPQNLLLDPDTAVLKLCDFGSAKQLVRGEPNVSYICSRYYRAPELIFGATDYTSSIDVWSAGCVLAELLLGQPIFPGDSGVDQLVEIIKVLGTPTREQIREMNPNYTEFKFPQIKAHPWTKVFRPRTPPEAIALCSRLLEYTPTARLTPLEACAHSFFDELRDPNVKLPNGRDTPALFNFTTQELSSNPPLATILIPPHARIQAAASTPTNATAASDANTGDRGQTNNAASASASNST
Protocol: Human GSK3beta (expressed and prified from SF21 cells) is obtained from the University Dundee/Scotland (Dr. James Hastie—Dept. of Biochemistry) in 50 mM Tris (pH7.5); 150 mM NaCl; 0.1 mM EGTA, 270 mM Succrose, 0.1% β-mercaptoethanol, 1 mM benzamidine, 0.2 mM PMSF; sequence see below). The enzyme is diluted to 3.56 μM (168 μg/ml) in enzyme dilution buffer and 6 μl aliquots are stored at −80° C.
The activity of GSK3 kinase protein is measured using the Z′-LYTETM assay technology from Invitrogen (# PV3324).
The assay is performed in 384 black plates from Corning (#3676) in a final volume of 10 μl by adding 5 μl of kinase peptide mix and 2.5 μl of compound dilution. The reaction is started by addition of 2.5 μl of the 4×ATP solution.
Positive controls are reaction mixtures containing no test compound; negative controls (blanks) are reaction mixtures containing no ATP. As a further control, the phosphopeptide solution is added to wells without kinase and without ATP (=100% phosphorylation control).
The non inhibited kinase reaction will result in a phosphorylation corresponding to 20%-30% of the phosphorylation control.
The reaction is performed 1 h at room temperature. After 1h 5 μl of the development solution is added. After a further incubation for 1 h at room temperature 5 μl of the stop reagent is added. Finally the plates are read on a Flex Station II 384 (Molecular Devices).
The output text file is evaluated in an “MS-Excel—VB-Makro” and “GraphPadPrism” (Version 5) (GraphPad Software Inc.) is used to calculate the results. Data for the inhibition of GSK3beta are reported in M. data for the inhibition of the protease are reported in % CTL.

[6] = read-out: IC50 in μM (SYK-Inhibition)
[7] = read-out: IC50 in μM (AURB-Inhibition)
[8] = read-out: IC50 in μM (FLT3-Inhibition)
[9] = Table 1, read-out: SYK-inhibition IC50-value
[10] = Table 1, read-out: AURB-inhibition IC50-value
[11] = Table 1, read-out: FLT3-inhibition IC50-value
[12] = Table 2a, read-out: IC50 in μM (SYK-Inhibition)
[13] = Table 2a, read-out: IC50 in μM (AURB-Inhibition)
[14] = Table 2a, read-out: IC50 in μM (FLT3-Inhibition)

| SMILES | IC50 [1, 6] | IC50 [2, 7] | IC50 [3, 8] | microsomal stability Cl [% Qh] ([4]; Qh = liver blood flow) | IC50 [5] | IC50 [1, 9] | IC50 [2, 10] | IC50 [3, 11] | IC50 [1, 12] | IC50 [2, 13] | IC50 [3, 14] | microsomal stability Cl [% Qh] ([4]; test compound 1 μM, Table 2a) | IC50 ([5]; Table 2a) |
| --- | --- | --- | --- | --- | --- | --- | --- | --- | --- | --- | --- | --- | --- |
| Cc1nc2ccc(-c3cc(O[C@H](C)[C@H]4CNC(=O)C4)c4cccnc4c3)cc2s1 [85 of WO 2013/014060] | 0.002 µM | 0.46 µM | 0.321 µM | 49 % Qh | 6.82 µM |  |  |  |  |  |  |  |  |
| COc1cc(-c2cc(O[C@H](C)[C@H]3CNC(=O)C3)c3cccnc3c2)ccc1C(F)(F)F [102 of WO 2013/014060] | 0.013 µM | 2.63 µM | 2.27 µM | 54 % Qh | > 10 µM |  |  |  |  |  |  |  |  |
| Cc1nc2cc(-c3cc(O[C@H](C)[C@H]4CNC(=O)C4)c4cccnc4c3)ccc2n1C [105 of WO 2013/014060] | 0.001 µM | 0.479 µM | 0.309 µM | 64 % Qh | > 10 µM |  |  |  |  |  |  |  |  |
| Cc1nc(C)c2cc(-c3cc(O[C@H](C)[C@H]4CNC(=O)C4)c4cccnc4c3)ccc2n1 [107 of WO 2013/014060] | 0.009 µM | 1.82 µM | 1.76 µM | 38 % Qh | > 10 µM |  |  |  |  |  |  |  |  |
| Cc1nc2cc(-c3cc(O[C@H](C)[C@H]4CNC(=O)C4)c4cccnc4c3)ccc2[nH]1 [109 of WO 2013/014060] | 0.001 µM | 0.26 µM | 0.33 µM | 41 % Qh | > 10 µM |  |  |  |  |  |  |  |  |
| COc1ccc(-c2cc3nn(C)cc3c(O[C@H](C)[C@H]3CNC(=O)C3)n2)cc1OC [Example 1, (4R)-4-[(1R)-1-[6-(3,4-Dimethoxyphenyl)-2-methyl-pyrazolo[4,3-c]pyridin-4-yl]oxyethyl]pyrrolidin-2-one] | 0.016 µM | > 50 µM | 3.99 µM | <23 % Qh | > 10 µM | 0.016 µM | > 50 µM | 3.99 µM |  |  |  |  |  |
| C[C@@H](Oc1nc(-c2cnn(C(C)(C)C)c2)cc2nn(C)cc12)[C@H]1CNC(=O)C1 [Example 2, (4R)-4-[(1R)-1-[6-(1-tert-Butylpyrazol-4-yl)-2-methyl-pyrazolo[4,3-c]pyridin-4-yl]oxyethyl]pyrrolidin-2-one] |  |  |  |  |  | 0.0144 µM | > 50 µM | 14.8 µM | 0.0144 µM | > 50 µM | 14.8 µM | <23 % Qh | > 10 µM |
| C[C@@H](Oc1cc(-c2cnn(C(C)(C)C)c2)cc2nn(C)cc12)[C@H]1CNC(=O)C1 [Example 18, (4R)-4-[(1R)-1-[6-(1-tert-butylpyrazol-4-yl)-2-methyl-indazol-4-yl]oxyethyl]pyrrolidin-2-one] |  |  |  |  |  | 0.0046 µM | > 50 µM | 13.4 µM | 0.0046 µM | > 50 µM | 13.4 µM | <23 % Qh | > 10 µM |
| C[C@@H](Oc1cc(-c2ccc(N3CCN(C)CC3)cc2)cc2nn(C)cc12)[C@H]1CNC(=O)C1 [Example 26, (4R)-4-[(1R)-1-[2-methyl-6-[4-(4-methylpiperazin-1-yl)phenyl]indazol-4-yl]oxyethyl]pyrrolidin-2-one] | 0.0258 µM | > 50 µM | 0.95 µM | <23 % Qh | > 10 µM | 0.0258 µM | > 50 µM | 0.95 µM |  |  |  |  |  |

Continued, values first:

| IC50 [1, 6] | IC50 [2, 7] | IC50 [3, 8] | microsomal stability Cl [% Qh] ([4]; Qh = liver blood flow) | IC50 [5] | IC50 [1, 9] | IC50 [2, 10] | IC50 [3, 11] | IC50 [1, 12] | IC50 [2, 13] | IC50 [3, 14] | microsomal stability Cl [% Qh] ([4]; test compound 1 μM, Table 2a) | IC50 ([5]; Table 2a) | SMILES |
| --- | --- | --- | --- | --- | --- | --- | --- | --- | --- | --- | --- | --- | --- |
| 0.138 µM | > 50 µM | 26.6 µM | <23 % Qh | > 10 µM | 0.138 µM | > 50 µM | 26.6 µM |  |  |  |  |  | CC(C)Oc1ccc(-c2cc(O[C@H](C)[C@H]3CNC(=O)C3)c3cn(C)nc3c2)cn1 [Example 27, (4R)-4-[(1R)-1-[6-(6-isopropoxy-3-pyridyl)-2-methyl-indazol-4-yl]oxyethyl]pyrrolidin-2-one] |
| 0.0335 µM | > 50 µM | 3.69 µM | <23 % Qh | > 10 µM | 0.0335 µM | > 50 µM | 3.69 µM |  |  |  |  |  | C[C@@H](Oc1cc(-c2ccc3c(cnn3C)c2)cc2nn(C)cc12)[C@H]1CNC(=O)C1 [Example 28, (4R)-4-[(1R)-1-[2-methyl-6-(1-methylindazol-5-yl)indazol-4-yl]oxyethyl]pyrrolidin-2-one] |
| 0.0172 µM | 35.2 µM | 2.39 µM | <23 % Qh | > 10 µM | 0.0172 µM | 35.2 µM | 2.39 µM |  |  |  |  |  | C[C@@H](Oc1cc(-c2ccc3c(c2)c(N)nn3C)cc2nn(C)cc12)[C@H]1CNC(=O)C1 [Example 36, (4R)-4-[(1R)-1-[6-(3-amino-1-methyl-indazol-5-yl)-2-methyl-indazol-4-yl]oxyethyl]pyrrolidin-2-one] |
| 0.164 µM | > 50 µM | 42.8 µM | <23 % Qh | > 10 µM | 0.164 µM | > 50 µM | 42.8 µM |  |  |  |  |  | C[C@@H](Oc1cc(-c2ccc(F)cn2)cc2nn(C)cc12)[C@H]1CNC(=O)C1 [Example 41, (4R)-4-[(1R)-1-[6-(5-fluoro-2-pyridyl)-2-methyl-indazol-4-yl]oxyethyl]pyrrolidin-2-one] |
| 0.0167 µM | > 50 µM | 0.55 µM | <23 % Qh | > 10 µM | 0.0167 µM | > 50 µM | 0.55 µM |  |  |  |  |  | C[C@@H](Oc1cc(-c2ccc(C3CCN(C)CC3)cc2)cc2nn(C)cc12)[C@H]1CNC(=O)C1 [Example 42, (4R)-4-[(1R)-1-[2-methyl-6-[4-(1-methyl-4-piperidyl)-phenyl]indazol-4-yl]oxyethyl]-pyrrolidin-2-one] |
| 0.366 µM | 49.8 µM | 20.9 µM | <23 % Qh | > 10 µM | 0.366 µM | 49.8 µM | 20.9 µM |  |  |  |  |  | C[C@@H](Oc1nc(-c2ccc(C(F)F)nc2)cc2nn(C)cc12)[C@H]1CNC(=O)C1 [Example 51, (4R)-4-[(1R)-1-[6-[6-(difluoromethyl)-3-pyridyl]-2-methyl-pyrazolo[4,3-c]pyridin-4-yl]oxyethyl]pyrrolidin-2-one] |
| 0.0413 µM | > 50 µM | > 50 µM | <23 % Qh | > 10 µM | 0.0413 µM | > 50 µM | > 50 µM |  |  |  |  |  | COc1cc(-c2cc3nn(C)cc3c(O[C@H](C)[C@H]3CNC(=O)C3)n2)cc(OC)c1OC [Example 52, (4R)-4-[(1R)-1-[2-methyl-6-(3,4,5-trimethoxyphenyl)-pyrazolo[4,3-c]pyridin-4-yl]oxyethyl]pyrrolidin-2-one] |
